Data on 1 sequence can be found in US7011834B1, “Immunomodulating dimers” (The Board of Trustees of Leland Stanford Junior University, priority 1987, dated 2006).

The test system of experiment [1] is CD8+CTL line specific for HLA-A2. Kind of experiment: Cytotoxicity assay: inhibition of lysis by established CTL, 51Cr-labeled JY targets. The class given is cell-based, human. To be noted: cell ratio 10:1, CTL line AJY.
The test system of the next experiment is PBL from normal donors. The experiment in a line: PBL proliferation with Conagglutinin A, 3H-thymidine incorporation. Type of experiment: cell-based, human. The settings on record: approximate, purity not established. How it is done: To measure the effect of D-substitutions on proliferation, PBL from normal donors were cultured at 5×10^5 cells/round bottom microtiter well in RPMI-1640 supplemented with 10% fetal bovine serum and L-glutamine. Cultures were supplemented with Conagglutinin A. Cells were incubated at 37° C. for three days at which point ^3H-thymidine (1 μCi/well) was added. After 24 hours, wells were harvested and ^3H-thymidine incorporation determined by scintillation counter.

Experiment [2] relates to Lew specific CTL precursors in splenocytes. Kind of experiment: Limiting dilution assay for CTL precursors in splenocytes after in vivo peptide. The settings on record: for [CTL precursor frequency]^−1: PVG rats, single iv 2 mg, Lew stimulators. The arrangement: species or system rat. How it is done:
The effect of peptides on CTL precursor frequencies in splenocytes was tested as follows. Limiting dilution analysis was carried out essentially as described (Moeller et al. 1993, supra; Skinner and Marbrook. J. Exp. Med. (1976) 143:1562). Briefly, spleens were removed from naive animals or from animals that had received an allograft a minimum of 60 days earlier and then teased into a single cell suspension. Responder cells were plated from 1000 to 40,000 cells per well (24 replicates per concentration) into round bottom microliter wells in RPMI 1640 supplemented with 10% fetal bovine serum (Hyclone, Logan, Utah), 2 mM L-glutamine, 5×10^−5M β-mercaptoethanol, 100 U/ml penicillin, 100 μg/ml streptomycin, 20% supernatant from Concanavalin A activated rat spleen cells, and 50 μM α-methyl mannoside. Then, 5×10^5 irradiated (2000 rads) stimulator cells were added to each well and plates were incubated in a humidified CO2 incubator. After 5 days, aliquots were removed and tested for lysis of ^51Cr-labeled Concanavalin A activated blasts. Aliquots of supernatant were counted in a gamma counter and CTL precursor frequency determined by linear regression (Skinner and Marbrook. 1976, supra). Wells were considered positive if specific release was >10%.
PVG (RT1^c) or ACI […] rats were treated with a single intravenous injection of saline or 2 mg of A2.75-84, B7.75-84, B2702.75-84, or RT1^a.75-84 peptide. Their spleens were removed on different days after peptide treatment, cultured under limiting dilution conditions for 5 days with irradiated (2000R) splenocytes from Lewis rats; i.e., Lew (RT1^1) stimulator cells, and assayed for lysis of ^51Cr-labeled Lew blasts. CTL precursor frequency was determined by linear regression analysis.

The subject of the next experiment is murine heart allograft. The experiment in a line: Murine heart allograft survival, C57B1/6 donor to CBA recipient. The class given is in vivo, mice. How it is done: Following the procedure set forth in Example 2C, daily administration of B2702.75-84 (80 mg/kg/day:ip) to CBA mice with (H-2^k) recipients of a C57B1/6 with (H-2^b) murine heart allograft prolonged graft survival to 11.4±2.6 days compared to 7.5±1.2 days in untreated control animals (n=8; p<0.01, Mann-Whitney U Test). The therapy using the same compound starting at day 5 after transplantation, prolonged graft survival to 9.2±0.4 days (n=5; p<0.02) indicating the subject composition could be useful in an ongoing rejection episode. In combination with a subtherapeutic dose of cyclosporin A (2.7 mg/kg/day; ip; day 0–4) the subject peptide prolonged graft survival to at least 45 days (3 grafts out of 4 still beating) compared to a median graft survival of 14 days in animals that received cyclosporin A monotherapy.
When the B2702.75-84 was prepared as the D-isomer (all amino acids in the D-form) and administered to murine graft recipients at 10 mg/kg/day (ip; day 0–10), graft survival was prolonged to more than 22 days in 4 out of 5 animals (4 grafts out of 5 still beating).

A further experiment has as its system purified T cells. Kind of experiment: Proliferation assay: purified T cells stimulated by immobilized anti-CD3, 3H-thymidine incorporation. The class given is cell-based, human. How it is done:
Cells and Cell Culture. PBL were isolated from normal donors by centrifugation over Ficoll-Hypaque. In some cases, T cells were purified from this preparation using the method of Secrist et al. [J. Exp. Med. (1993) 178:2123]. Briefly, cells isolated over Ficoll-Hypaque were incubated for 1 hour in Petri dishes. Nonadherent cells were passed over a nylon wool column and the resulting population was >90% CD3+ by FACS analysis. CD8+CTL lines specific for HLA-A2, B7, B27, B48, or Cw4 were generated and maintained in long-term culture as previously described [Buxton et al., J. Exp. Med. (1992) 175:809; Wesley et al., Hum. Immunol. (1993) 36:149]. Jurkat E6-1 and the T cell receptor negative Jurkat, JRT3-T3.5, were obtained from the American Type Culture Collection (ATCC; Rockville, Md.). Other cell lines used included the EBV transformed B cell lines JY, MS, C1R, and 721.221; K562 and HEL, erythroleukemia cell lines; the T cell tumors Peer, Hut-78 and HSB; the Burkitt's lymphoma cell lines Daudi and SUP B17 [Wright et al., J. Exp. Med. (1989) 169:1557], and the NK-like cell line YT2C2. […]
Proliferation Assay. […] Plates were harvested on a PHD Cell Harvester 24 hours later and [^3H]-thymidine incorporation determined by scintillation counting.
Peptides were evaluated for effects on the proliferation of purified T cells stimulated by immobilized anti-CD3 antibody. […]

RENLRIALRY [B2702.75–84]: the “% Specific Lysis” value in experiment [1] (peptide 25 μg/ml) was 60.9%; in experiment [1] (peptide 100 μg/ml), 43.7%; in experiment [1] (peptide 200 μg/ml), 33.1%. In addition, the “CPM ± SD (3H-thymidine incorporation)” value in the experiment on PBL from normal donors (peptide 50 μg/ml, Con A 1 mg/ml) is listed as 5,806 ± 721 CPM; in the experiment on PBL from normal donors (peptide 50 μg/ml, Con A 3 mg/ml), 32,618 ± 1582 CPM; with PBL from normal donors (peptide 200 μg/ml, Con A 1 mg/ml), 2,322 ± 147 CPM; in the experiment on PBL from normal donors (peptide 200 μg/ml, Con A 3 mg/ml) it was 20,905 ± 2047 CPM. The “[CTL precursor frequency]^−1” value in experiment [2] (0 days after peptide injection) is reported as 54,631; in experiment [2] (1 day after peptide injection), 54,631; in experiment [2] (7 days after peptide injection) it was 465,572; in experiment [2] (10 days after peptide injection) it was 468,071. The “precursor frequency of Lew specific cells in splenocytes” value in experiment [2] (treated on the day of splenectomy or 24 hours earlier, compared with approximately 1 in 55,000) is listed as “The same frequency”. The graft survival is 11.4 ± 2.6 days with murine heart allograft (80 mg/kg/day ip daily, untreated 7.5±1.2 days, n=8); “at least 45 days” with murine heart allograft (peptide plus subtherapeutic cyclosporin A 2.7 mg/kg/day ip day 0–4); 9.2 ± 0.4 days with murine heart allograft (therapy starting at day 5 after transplantation, n=5). The “inhibition of proliferation of purified T cells stimulated by immobilized anti-CD3 antibody” value with purified T cells is recorded as “do not”.
